Test results published in paper PMC8536124 (International Journal of Molecular Sciences, 2021).

Tests used:
HL-60(TB) = experiment: NCI-60 screening (SRB); format: cell-based, human; conditions: HL-60(TB), five-dose
Breast cancer = experiment: NCI-60 screening (SRB), subpanel; format: cell-based
From the text: (§1) The experimental data allow the assessment of the cytostatic effect, indicated by growth inhibition values ranging between 0 and 100, as well as of the cytotoxic effect, indicated by negative values.
(§2) The mean GI50 (molar concentration of the compound that inhibits 50% net cell growth), TGI (molar concentration of the compound leading to the total inhibition), and LC50 (molar concentration of the compound leading to 50% net cell death (presented in negative logarithm)) values across each cell line are shown in Table 2.
(§3) The selectivity index (SI), calculated as the ratio between the full panel MG_MID60 (μM) of compounds 4, 6, and 9 by their respective subpanels MG_MID of the cell line (μM), was introduced as a quantification tool for the selectivity of each compound in terms of anticancer effect (Table 3).
(§4) Primary anticancer assays were performed according to the NCI protocol, as described elsewhere (see e.g., http://dtp.nci.nih.gov accessed on 1 November 2018). The compounds were added at a single concentration, and the cell cultures were incubated for 48 h. The end point determinations were made with a protein-binding dye, sulforhodamine B (SRB). […] The percentage of growth was evaluated spectrophotometrically versus controls not treated with test agents after 48 h exposure and using SRB protein assay to estimate cell viability or growth. Three antitumor activity dose-response parameters were calculated for each cell line. Furthermore, mean graph midpoints (MG_MID) were calculated for each of the parameters, giving an average activity parameter over all cell lines for the tested compound. For the MG_MID calculation, insensitive cell lines were included with the highest concentration tested.

Colon Cancer = experiment: NCI-60 screening (SRB), subpanel; format: cell-based
From the text: as §1, §2, §3, §4

Leukemia = experiment: NCI-60 screening (SRB), subpanel; format: cell-based
From the text: as §1, §2, §3, §4

Melanoma = experiment: NCI-60 screening (SRB), subpanel; format: cell-based
From the text: as §1, §2, §3, §4

NSC lung cancer = experiment: NCI-60 screening (SRB), subpanel; format: cell-based
From the text: as §1, §2, §3, §4

Ovarian cancer = experiment: NCI-60 screening (SRB), subpanel; format: cell-based
From the text: as §1, §2, §3, §4

Prostate cancer = experiment: NCI-60 screening (SRB), subpanel; format: cell-based
From the text: as §1, §2, §3, §4

Renal Cancer = experiment: NCI-60 screening (SRB), subpanel; format: cell-based
From the text: as §1, §2, §3, §4

A549/ATCC = experiment: NCI-60 screening (SRB); format: cell-based, human; conditions: five-dose
HOP-62 = experiment: NCI-60 screening (SRB); format: cell-based, human; conditions: five-dose
NCI-H226 = experiment: NCI-60 screening (SRB); format: cell-based, human; conditions: five-dose
NCI-H322M = experiment: NCI-60 screening (SRB); format: cell-based, human; conditions: five-dose
NCI-H460 = experiment: NCI-60 screening (SRB); format: cell-based, human; conditions: five-dose
SF-295 = experiment: NCI-60 screening (SRB); format: cell-based, human; conditions: five-dose
UACC-257 = experiment: NCI-60 screening (SRB); format: cell-based, human; conditions: five-dose
UACC-62 = experiment: NCI-60 screening (SRB); format: cell-based, human; conditions: five-dose
IGROV1 = experiment: NCI-60 screening (SRB); format: cell-based, human
OVCAR-4 = experiment: NCI-60 screening (SRB); format: cell-based, human; conditions: five-dose
OVCAR-5 = experiment: NCI-60 screening (SRB); format: cell-based, human; conditions: five-dose
CAKI-1 = experiment: NCI-60 screening (SRB); format: cell-based, human; conditions: CAKI-1, five-dose
RXF 393 = experiment: NCI-60 screening (SRB); format: cell-based, human; conditions: five-dose
TK-10 = experiment: NCI-60 screening (SRB); format: cell-based, human; conditions: five-dose
MDA-MB-31/ATCC = experiment: NCI-60 screening (SRB); format: cell-based, human; conditions: five-dose
MDA-MB-468 = experiment: NCI-60 screening (SRB); format: cell-based, human; conditions: five-dose
[1] = Homo sapiens, read-out: LC50 (the source's name)

CCN1CCN(C(=O)[C@]23CCC(C)(C)C[C@H]2C2=CC[C@@H]4[C@@]5(C)C/C(=C/c6cccnc6)C(=O)C(C)(C)[C@@H]5CC[C@@]4(C)[C@]2(C)CC3)CC1 [Compound 6] was tested, and the TGI (HL-60(TB)) was 9.02 µM, the GI50 (HL-60(TB); Homo sapiens) was 2.1 µM and the CC50 (HL-60(TB); [1]) was greater than 100 µM. For the same compound, the “TGI MG_MID” value (Breast cancer; Breast cancer subpanel, five-dose) was 5.30 µM, the “SI (TGI)” value (Breast cancer; Breast cancer, MG_MID60/subpanel MG_MID) was 1.17 and the GI50 (Breast cancer; Homo sapiens, Breast cancer subpanel, five-dose, read-out: GI50 MG_MID) was 1.67 µM. For the same compound, the CC50 (Breast cancer; Homo sapiens, Breast cancer subpanel, five-dose, read-out: LC50 MG_MID) was 39.6 µM, the “TGI MG_MID” value (Colon Cancer; Colon Cancer subpanel, five-dose) was 3.51 µM and the “SI (TGI)” value (Colon Cancer; Colon Cancer, MG_MID60/subpanel MG_MID) was 1.99. The GI50 (Colon Cancer; Homo sapiens, Colon Cancer subpanel, five-dose, read-out: GI50 MG_MID) was 1.52 µM, the CC50 (Colon Cancer; Homo sapiens, Colon Cancer subpanel, five-dose, read-out: LC50 MG_MID) was 25.4 µM and the CC50 (Leukemia; Homo sapiens, Leukemia subpanel, five-dose, read-out: LC50 MG_MID) was greater than 100 µM. The “TGI MG_MID” value (Leukemia; Leukemia subpanel, five-dose) was 5.10 µM, the “SI (TGI)” value (Leukemia; Leukemia, MG_MID60/subpanel MG_MID) was 0.30 and the GI50 (Melanoma; Homo sapiens, Melanoma subpanel, five-dose, read-out: GI50 MG_MID) was 1.54 µM. The CC50 (Melanoma; Homo sapiens, Melanoma subpanel, five-dose, read-out: LC50 MG_MID) was 9.2 µM, the “TGI MG_MID” value (Melanoma; Melanoma subpanel, five-dose) was 3.21 µM and the “SI (TGI)” value (Melanoma; Melanoma, MG_MID60/subpanel MG_MID) was 1.96. The GI50 (NSC lung cancer; Homo sapiens, NSC lung cancer subpanel, five-dose, read-out: GI50 MG_MID) was 1.91 µM, the CC50 (NSC lung cancer; Homo sapiens, NSC lung cancer subpanel, five-dose, read-out: LC50 MG_MID) was 29.7 µM and the “TGI MG_MID” value (NSC lung cancer; NSC lung cancer subpanel, five-dose) was 5.83 µM. For the same compound, the “SI (TGI)” value (NSC lung cancer; NSCL cancer, MG_MID60/subpanel MG_MID) was 1.08, the GI50 (Ovarian cancer; Homo sapiens, Ovarian cancer subpanel, five-dose, read-out: GI50 MG_MID) was 2.15 µM and the CC50 (Ovarian cancer; Homo sapiens, Ovarian cancer subpanel, five-dose, read-out: LC50 MG_MID) was 36.2 µM. For the same compound, the “SI (TGI)” value (Ovarian cancer; Ovarian Cancer, MG_MID60/subpanel MG_MID) was 1.52, the “TGI MG_MID” value (Ovarian cancer; Ovarian cancer subpanel, five-dose) was 4.14 µM and the GI50 (Prostate cancer; Homo sapiens, Prostate cancer subpanel, five-dose, read-out: GI50 MG_MID) was 1.42 µM. For the same compound, the CC50 (Prostate cancer; Homo sapiens, Prostate cancer subpanel, five-dose, read-out: LC50 MG_MID) was 8.01 µM, the “TGI MG_MID” value (Prostate cancer; Prostate cancer subpanel, five-dose) was 3.34 µM and the “SI (TGI)” value (Prostate cancer; Prostate cancer, MG_MID60/subpanel MG_MID) was 1.89. For the same compound, the GI50 (Renal Cancer; Homo sapiens, Renal cancer subpanel, five-dose, read-out: GI50 MG_MID) was 1.97 µM, the LC50 (50% net cell kill) (Renal Cancer; Homo sapiens, Renal cancer subpanel, five-dose, read-out: LC50 MG_MID) was 20.2 µM and the “SI (TGI)” value (Renal Cancer; Renal Cancer, MG_MID60/subpanel MG_MID) was 0.96. The “TGI MG_MID” value (Renal Cancer; Renal cancer subpanel, five-dose) was 6.54 µM, the GI50 (A549/ATCC; Homo sapiens) was 2.62 µM and the CC50 (A549/ATCC; [1]) was greater than 100 µM. The TGI (A549/ATCC) was 13.4 µM, the GI50 (HOP-62; Homo sapiens) was 1.88 µM and the LC50 (HOP-62; Homo sapiens) was 7.47 µM. It also gave a TGI (HOP-62) of 3.75 µM, a GI50 (NCI-H226; Homo sapiens) of 1.76 µM and a TGI (NCI-H226) of 3.80 µM. For the same compound, the GI50 (NCI-H322M; Homo sapiens) was 2.87 µM, the CC50 (NCI-H322M; [1]) was 33.9 µM and the TGI (NCI-H322M) was 9.25 µM. It also gave a GI50 (NCI-H460; Homo sapiens) of 1.39 µM, a CC50 (NCI-H460; [1]) of 6.2 µM and a TGI (NCI-H460) of 2.93 µM. It also gave a GI50 (SF-295; Homo sapiens) of 1.66 µM, a CC50 (SF-295; [1]) of 5.97 µM and a TGI (SF-295) of 3.15 µM. It also gave a GI50 (UACC-257; Homo sapiens) of 1.61 µM, a CC50 (UACC-257; [1]) of 33.8 µM and a TGI (UACC-257) of 4.29 µM. The GI50 (UACC-62; Homo sapiens) was 1.28 µM, the CC50 (UACC-62; [1]) was 6.23 µM and the TGI (UACC-62) was 2.83 µM. The GI50 (IGROV1; Homo sapiens, IGROV-1, five-dose) was 1.91 µM, the CC50 (IGROV1; Homo sapiens, IGROV-1, five-dose, read-out: LC50 (the source's name)) was 9.1 µM and the TGI (IGROV1; five-dose) was 4.16 µM. It also gave a GI50 (OVCAR-4; Homo sapiens) of 2.17 µM, a CC50 (OVCAR-4; [1]) of 47.8 µM and a TGI (OVCAR-4) of 7.85 µM. The GI50 (OVCAR-5; Homo sapiens) was 1.56 µM, the CC50 (OVCAR-5; [1]) was 7.19 µM and the TGI (OVCAR-5) was 3.35 µM. It also gave a TGI (CAKI-1) of 11.8 µM, a GI50 (CAKI-1; Homo sapiens) of 2.08 µM and a CC50 (CAKI-1; [1]) of 45.3 µM. The GI50 (RXF 393; Homo sapiens) was 1.42 µM, the CC50 (RXF 393; [1]) was 5.41 µM and the TGI (RXF 393) was 2.77 µM. The GI50 (TK-10; Homo sapiens) was 3.86 µM, the CC50 (TK-10; [1]) was 54.1 µM and the TGI (TK-10) was 15.4 µM. The GI50 (MDA-MB-31/ATCC; Homo sapiens) was 1.4 µM, the CC50 (MDA-MB-31/ATCC; [1]) was 5.78 µM and the TGI (MDA-MB-31/ATCC) was 2.84 µM. It also gave a GI50 (MDA-MB-468; Homo sapiens) of 1.28 µM, a CC50 (MDA-MB-468; [1]) of 19.7 µM and a TGI (MDA-MB-468) of 3.94 µM.
